Laboratory results as given in PubChem BioAssay (NCI).
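In this assay, cells in 96-well plates receive the compound at five concentrations for 48 hours. Endpoints are linearly interpolated between the surrounding concentrations. GI50 = concentration required for 50% inhibition of growth. Definition used: TGI = concentration required for complete inhibition of growth.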

Tests used:
Assay in all cases: growth of human tumour cells (NCI), 48 h
A549 NSCLC = tested on: A549 NSCLC
SNB-75 CNS = tested on: SNB-75 CNS
SK-OV-3 ovarian = tested on: SK-OV-3 ovarian
SW-620 colon = tested on: SW-620 colon
SN12C renal = tested on: SN12C renal
MCF7 breast = tested on: MCF7 breast
786-0 renal = tested on: 786-0 renal
HL-60(TB) leukemia = tested on: HL-60(TB) leukemia
IGROV1 ovarian = tested on: IGROV1 ovarian
SK-MEL-5 melanoma = tested on: SK-MEL-5 melanoma
UACC-62 melanoma = tested on: UACC-62 melanoma
T-47D breast = tested on: T-47D breast
A498 renal = tested on: A498 renal
ACHN renal = tested on: ACHN renal
HCT-116 colon = tested on: HCT-116 colon
PC-3 prostate = tested on: PC-3 prostate
LOX IMVI melanoma = tested on: LOX IMVI melanoma
EKVX NSCLC = tested on: EKVX NSCLC
RXF 393 renal = tested on: RXF 393 renal
HOP-92 NSCLC = tested on: HOP-92 NSCLC
OVCAR-5 ovarian = tested on: OVCAR-5 ovarian
DU-145 prostate = tested on: DU-145 prostate
SF-268 CNS = tested on: SF-268 CNS
MOLT-4 leukemia = tested on: MOLT-4 leukemia
U251 CNS = tested on: U251 CNS
HCT-15 colon = tested on: HCT-15 colon
HOP-62 NSCLC = tested on: HOP-62 NSCLC
MDA-MB-231 breast = tested on: MDA-MB-231 breast
NCI-H226 lung = tested on: NCI-H226 lung
CCRF-CEM leukemia = tested on: CCRF-CEM leukemia
RPMI-8226 leukemia = tested on: RPMI-8226 leukemia
NCI/ADR-RES ovarian = tested on: NCI/ADR-RES ovarian
OVCAR-3 ovarian = tested on: OVCAR-3 ovarian
SK-MEL-2 melanoma = tested on: SK-MEL-2 melanoma
NCI-H460 lung = tested on: NCI-H460 lung
SR leukemia = tested on: SR leukemia
COLO 205 colon = tested on: COLO 205 colon
SK-MEL-28 melanoma = tested on: SK-MEL-28 melanoma
SNB-19 CNS = tested on: SNB-19 CNS
UACC-257 melanoma = tested on: UACC-257 melanoma
HT29 colon = tested on: HT29 colon
M14 melanoma = tested on: M14 melanoma
OVCAR-8 ovarian = tested on: OVCAR-8 ovarian
HS 578T breast = tested on: HS 578T breast
UO-31 renal = tested on: UO-31 renal
HCC-2998 colon = tested on: HCC-2998 colon
NCI-H23 lung = tested on: NCI-H23 lung
MDA-MB-435 = tested on: MDA-MB-435
CAKI-1 renal = tested on: CAKI-1 renal
BT-549 breast = tested on: BT-549 breast
TK-10 renal = tested on: TK-10 renal
NCI-H522 lung = tested on: NCI-H522 lung
KM12 colon = tested on: KM12 colon
SF-539 CNS = tested on: SF-539 CNS
K-562 leukemia = tested on: K-562 leukemia
SF-295 CNS = tested on: SF-295 CNS
MALME-3M melanoma = tested on: MALME-3M melanoma
OVCAR-4 ovarian = tested on: OVCAR-4 ovarian

O=C(Nc1ncc(Cc2ccccc2Cl)s1)c1ccc2c(c1)OCCO2
GI50 (A549 NSCLC): 0.466 µM | TGI (A549 NSCLC): > 100 µM | GI50 (SNB-75 CNS): 0.262 µM | TGI (SNB-75 CNS): 6.55 µM | GI50 (SK-OV-3 ovarian): 0.537 µM | TGI (SK-OV-3 ovarian): 22.6 µM | GI50 (SW-620 colon): 0.358 µM | TGI (SW-620 colon): > 100 µM | GI50 (SN12C renal): 0.614 µM | TGI (SN12C renal): > 94 µM | GI50 (MCF7 breast): 0.32 µM | TGI (MCF7 breast): > 100 µM | GI50 (786-0 renal): 0.574 µM | TGI (786-0 renal): > 100 µM | GI50 (HL-60(TB) leukemia): 0.396 µM | GI50 (IGROV1 ovarian): 0.498 µM | TGI (IGROV1 ovarian): > 57.8 µM | GI50 (SK-MEL-5 melanoma): 0.334 µM | TGI (SK-MEL-5 melanoma): 1.81 µM | GI50 (UACC-62 melanoma): 0.569 µM | TGI (UACC-62 melanoma): > 43.3 µM | GI50 (T-47D breast): 0.333 µM | TGI (T-47D breast): > 100 µM | GI50 (A498 renal): 0.151 µM | TGI (A498 renal): 0.693 µM | GI50 (ACHN renal): 0.776 µM | TGI (ACHN renal): > 65.1 µM | GI50 (HCT-116 colon): 0.335 µM | TGI (HCT-116 colon): > 100 µM | GI50 (PC-3 prostate): 0.417 µM | TGI (PC-3 prostate): > 100 µM | GI50 (LOX IMVI melanoma): 0.583 µM | TGI (LOX IMVI melanoma): > 100 µM | GI50 (EKVX NSCLC): 0.663 µM | TGI (EKVX NSCLC): > 100 µM | GI50 (RXF 393 renal): 0.255 µM | TGI (RXF 393 renal): 1.19 µM | GI50 (HOP-92 NSCLC): 4.08 µM | TGI (HOP-92 NSCLC): > 81.8 µM | GI50 (OVCAR-5 ovarian): 0.747 µM | TGI (OVCAR-5 ovarian): > 100 µM | GI50 (DU-145 prostate): 0.384 µM | TGI (DU-145 prostate): 17.5 µM | GI50 (SF-268 CNS): 1.8 µM | TGI (SF-268 CNS): > 100 µM | GI50 (MOLT-4 leukemia): 0.581 µM | TGI (MOLT-4 leukemia): > 100 µM | GI50 (U251 CNS): 0.4 µM | TGI (U251 CNS): > 51.6 µM | GI50 (HCT-15 colon): 0.119 µM | TGI (HCT-15 colon): > 100 µM | GI50 (HOP-62 NSCLC): 0.592 µM | TGI (HOP-62 NSCLC): > 82.9 µM | GI50 (MDA-MB-231 breast): 0.38 µM | TGI (MDA-MB-231 breast): 8.76 µM | GI50 (NCI-H226 lung): 1.17 µM | TGI (NCI-H226 lung): 8.45 µM | GI50 (CCRF-CEM leukemia): 0.36 µM | TGI (CCRF-CEM leukemia): > 100 µM | GI50 (RPMI-8226 leukemia): 0.479 µM | TGI (RPMI-8226 leukemia): > 100 µM | GI50 (NCI/ADR-RES ovarian): 0.322 µM | TGI (NCI/ADR-RES ovarian): 22.2 µM | GI50 (OVCAR-3 ovarian): 0.285 µM | TGI (OVCAR-3 ovarian): 1.07 µM | GI50 (SK-MEL-2 melanoma): 0.667 µM | TGI (SK-MEL-2 melanoma): > 69.6 µM | GI50 (NCI-H460 lung): 0.352 µM | TGI (NCI-H460 lung): > 44.1 µM | GI50 (SR leukemia): 0.206 µM | TGI (SR leukemia): > 100 µM | GI50 (COLO 205 colon): 0.318 µM | TGI (COLO 205 colon): 3.55 µM | GI50 (SK-MEL-28 melanoma): 1.66 µM | TGI (SK-MEL-28 melanoma): > 59 µM | GI50 (SNB-19 CNS): 0.548 µM | TGI (SNB-19 CNS): > 45.5 µM | GI50 (UACC-257 melanoma): 6.27 µM | TGI (UACC-257 melanoma): > 82.1 µM | GI50 (HT29 colon): 0.616 µM | TGI (HT29 colon): > 48.5 µM | GI50 (M14 melanoma): 0.246 µM | TGI (M14 melanoma): 14.5 µM | GI50 (OVCAR-8 ovarian): 0.479 µM | TGI (OVCAR-8 ovarian): > 100 µM | GI50 (HS 578T breast): 0.354 µM | TGI (HS 578T breast): 35.5 µM | GI50 (UO-31 renal): 1.13 µM | TGI (UO-31 renal): > 100 µM | GI50 (HCC-2998 colon): 0.468 µM | TGI (HCC-2998 colon): > 55.5 µM | GI50 (NCI-H23 lung): 0.625 µM | TGI (NCI-H23 lung): > 100 µM | GI50 (MDA-MB-435): 0.0399 µM | TGI (MDA-MB-435): 0.22 µM | GI50 (CAKI-1 renal): 0.306 µM | TGI (CAKI-1 renal): > 47.9 µM | GI50 (BT-549 breast): 0.567 µM | TGI (BT-549 breast): > 100 µM | GI50 (TK-10 renal): 0.672 µM | TGI (TK-10 renal): > 40 µM | GI50 (NCI-H522 lung): 0.261 µM | GI50 (KM12 colon): 0.322 µM | TGI (KM12 colon): > 35.6 µM | GI50 (SF-539 CNS): 0.258 µM | TGI (SF-539 CNS): 0.741 µM | GI50 (K-562 leukemia): 0.183 µM | TGI (K-562 leukemia): > 100 µM | GI50 (SF-295 CNS): 0.346 µM | TGI (SF-295 CNS): 5.04 µM | GI50 (MALME-3M melanoma): 0.68 µM | TGI (MALME-3M melanoma): > 47.1 µM | GI50 (OVCAR-4 ovarian): 0.693 µM | TGI (OVCAR-4 ovarian): > 68.2 µM
